Results from US11166958B2, “4-pyrazin-2-ylmethyl-morpholine derivatives and the use thereof as medicament” (Boehringer Ingelheim International GmbH, priority 2018, dated 2021).

Tests used:
Nav1.6 channel = Nav1.6 channel (Homo sapiens (Human), UniProt Q9UQD0); experiment: Nav1.6 inhibition, IonWorks Quattro electrophysiology; type: cell-based; conditions: for inhibition at 1 µM / inhibition at 5 µM: normalized to vehicle (0%) and maximal inhibition control (100%)
Protocol: IonWorks Quattro electrophysiological platform
The compounds were prepared in DMSO at 300× the final assay concentrations of 1 and 5 μM.
The 300× DMSO stock solutions were transferred into assay plates where 2 μl per well of each 300× stock solution were placed. All assay plates were stored at −80° C. until the day of assay.
On the day of the assay, the appropriate assay plate was thawed at room temperature, centrifuged, and 198 μl of external recording solution was added and mixed thoroughly. This provided a 1:100 dilution. A further 1:3 dilution occurred upon addition to the cells in the IonWorks Quattro electrophysiological platform, giving a 1:300 dilution in total. On each assay plate, at least 8 wells were reserved for vehicle control (0.3% DMSO) and at least 8 wells for each positive control specific to the cell line tested. The positive controls were tested at a maximal blocking and an approximate IC50 concentration. As positive control Lidocaine at concentrations of 30 and 1000 μM was used.
The solutions for recording Nav1.6 currents were as follows:
Amphotericin B was used to obtain electrical access to the cell interior at a final concentration of 200 μg/ml in internal recording solution.
State-dependent inhibition: Sodium channels when held at depolarized potential or long test pulse, the channels open and inactivate and then stay inactivated until the membrane potential is stepped back to hyperpolarized potentials, when the inactivated channels recover from inactivation into closed state.
Cells were held at −120 mV. In order to completely inactivate the sodium channels (pulse 1), the cells were pulsed to +0 mV for 2500 ms and stepped back to −120 mV for 10 ms (to completely recover from inactivation, however channels that had drugs bound to them will not recover from inactivation) before stepping to +0 mV for 20 ms (pulse 2).
Assay Control Results Both the positive and vehicle control data associated with each cell line assayed are shown below as an example. The mean is shown for each positive and negative control as solid symbol with the total number of individual well replicates given next to the solid symbol. In addition, the individual data of each well are shown on the graph as open symbols so that the variation about the mean value can be readily assessed.
Shown below are the assay controls for the Nav1.6 IonWorks Quattro assay.
Tables 3 and 4 show the normalized percentage inhibition of Nav1.6 channel. […] (see also the figure Assay Control Results above).

[1] = Metabolic stability in pooled human liver microsomes; type: in vitro ADME; conditions: pH 7.6, 1 μM compound, 1 mg/mL microsomal protein, 37° C., NADPH, read-out: Half-life − t½ human liver microsomes
Text: Stability in human liver microsomes refers to the susceptibility of compounds to biotransformation in the context of selecting and/or designing drugs with favorable pharmacokinetic properties. The primary site of metabolism for many drugs is the liver. Human liver microsomes contain the cytochrome P450s (CYPs), and thus represent a model system for studying drug metabolism in vitro Enhanced stability in human liver microsomes is associated with several advantages, including increased bioavailability and adequate half-life, which can enable lower and less frequent dosing of patients.
The metabolic degradation of the test compound was assayed at 37° C. with pooled human liver microsomes. The final incubation volume of 60 μl per time point contains TRIS buffer pH 7.6 at room temperature (0.1 M), magnesium chloride (5 mM aqueous solution), microsomal protein (1 mg/mL for human) and the test compound at a final concentration of 1 μM. Following a short preincubation period at 37° C., the reactions were initiated by addition of betanicotinamide adenine dinucleotide phosphate, reduced form (NADPH, 1 mM), and terminated by transferring an aliquot into acetonitril after different time points. After centrifugation (10000 g, 5 min), an aliquot of the supernatant was assayed by HPLC-MS/MS as described above for the MDCK assay P-gp for the amount of parent compound. The half-life was determined by the slope of the semi-logarithmic plot of the concentration-time profile.

Nav1.6 channel, sequence (Q9UQD0 whole entry): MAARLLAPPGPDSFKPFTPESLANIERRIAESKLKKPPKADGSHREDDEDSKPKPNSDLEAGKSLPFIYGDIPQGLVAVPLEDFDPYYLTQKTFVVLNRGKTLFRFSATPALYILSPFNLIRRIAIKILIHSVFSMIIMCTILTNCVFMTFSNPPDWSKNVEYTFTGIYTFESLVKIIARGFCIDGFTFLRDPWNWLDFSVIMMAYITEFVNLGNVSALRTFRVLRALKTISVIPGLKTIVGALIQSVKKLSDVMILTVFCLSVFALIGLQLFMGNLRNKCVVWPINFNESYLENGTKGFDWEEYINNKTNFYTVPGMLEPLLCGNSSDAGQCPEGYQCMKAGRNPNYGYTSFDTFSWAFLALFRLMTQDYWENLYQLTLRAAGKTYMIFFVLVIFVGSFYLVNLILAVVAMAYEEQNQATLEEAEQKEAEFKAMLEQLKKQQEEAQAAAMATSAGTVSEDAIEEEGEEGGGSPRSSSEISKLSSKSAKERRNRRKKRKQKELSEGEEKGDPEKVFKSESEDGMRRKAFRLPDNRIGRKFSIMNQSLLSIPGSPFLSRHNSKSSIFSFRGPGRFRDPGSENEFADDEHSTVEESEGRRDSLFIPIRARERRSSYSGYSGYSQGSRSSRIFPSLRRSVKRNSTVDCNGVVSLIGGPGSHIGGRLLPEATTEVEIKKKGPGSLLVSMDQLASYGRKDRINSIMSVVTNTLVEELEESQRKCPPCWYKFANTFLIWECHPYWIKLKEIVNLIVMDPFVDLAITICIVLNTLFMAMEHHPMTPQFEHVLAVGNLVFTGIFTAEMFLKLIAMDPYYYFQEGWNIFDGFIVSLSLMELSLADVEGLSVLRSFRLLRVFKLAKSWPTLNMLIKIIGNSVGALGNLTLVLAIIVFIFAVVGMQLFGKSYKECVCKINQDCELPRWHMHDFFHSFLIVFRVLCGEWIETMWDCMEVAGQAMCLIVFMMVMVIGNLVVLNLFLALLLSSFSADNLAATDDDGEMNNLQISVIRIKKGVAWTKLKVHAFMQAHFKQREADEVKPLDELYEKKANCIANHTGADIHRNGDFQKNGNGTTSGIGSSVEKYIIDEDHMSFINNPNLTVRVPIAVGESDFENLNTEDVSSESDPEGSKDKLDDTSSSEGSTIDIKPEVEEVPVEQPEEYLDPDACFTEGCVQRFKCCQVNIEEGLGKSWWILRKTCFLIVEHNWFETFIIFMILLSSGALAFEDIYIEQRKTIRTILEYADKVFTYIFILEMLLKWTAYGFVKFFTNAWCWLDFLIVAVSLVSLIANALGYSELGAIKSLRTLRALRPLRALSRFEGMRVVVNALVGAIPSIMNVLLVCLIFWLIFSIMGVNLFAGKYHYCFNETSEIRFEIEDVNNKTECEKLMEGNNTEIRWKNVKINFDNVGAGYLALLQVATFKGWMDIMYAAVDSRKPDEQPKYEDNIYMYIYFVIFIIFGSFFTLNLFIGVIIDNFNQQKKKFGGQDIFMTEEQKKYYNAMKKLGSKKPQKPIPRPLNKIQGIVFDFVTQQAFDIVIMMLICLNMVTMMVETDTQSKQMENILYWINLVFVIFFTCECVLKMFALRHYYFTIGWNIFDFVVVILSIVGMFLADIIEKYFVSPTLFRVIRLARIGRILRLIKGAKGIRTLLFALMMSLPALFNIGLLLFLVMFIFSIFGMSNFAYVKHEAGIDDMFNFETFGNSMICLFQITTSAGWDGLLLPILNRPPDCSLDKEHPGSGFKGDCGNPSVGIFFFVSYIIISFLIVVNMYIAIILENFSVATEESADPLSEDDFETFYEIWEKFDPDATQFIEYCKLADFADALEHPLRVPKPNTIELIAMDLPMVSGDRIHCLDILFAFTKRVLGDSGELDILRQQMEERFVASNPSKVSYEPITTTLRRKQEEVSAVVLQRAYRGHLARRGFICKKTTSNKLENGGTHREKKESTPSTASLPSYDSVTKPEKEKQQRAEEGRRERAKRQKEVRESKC

| inhibition at 1 µM (Nav1.6 channel) | inhibition at 5 µM (Nav1.6 channel) | half-life at 1 µM [1] | inhibition of the Nav 1.6 channel (Nav1.6 channel; at 5 μM) | SMILES |
| --- | --- | --- | --- | --- |
| 0% | 4.6% | > 2.17 h |  | CNC(=O)[C@@H]1CN(Cc2cnc(Oc3ccccc3F)cn2)CCO1 [Example 9] |
| -10.5% | -6.6% | > 2.17 h |  | CCNC(=O)[C@@H]1CN(Cc2cnc(Oc3ccccc3Cl)cn2)CCO1 [Example 33] |
| 4.6% | 6.8% | > 2.17 h |  | CNC(=O)[C@@H]1CN(Cc2cnc(Oc3ccc(C)cc3)cn2)CCO1 [Example 3] |
| -9% | -15% | > 2.17 h | not showing any significant inhibition | CNC(=O)[C@@H]1CN(Cc2cnc(Oc3ccc(Cl)cc3)cn2)CCO1 [Example 7] |
| 3% | 1.1% | > 2.17 h |  | CNC(=O)[C@@H]1CN(Cc2cnc(Oc3ccc(F)cc3C)cn2)CCO1 [Example 8] |
| 3.4% | 5% | > 2.17 h |  | CNC(=O)[C@@H]1CN(Cc2cnc(Oc3ccc(C)cc3C)cn2)CCO1 [Example 4] |
| -9% | 0.5% | > 2.17 h |  | CNC(=O)[C@@H]1CN(Cc2cnc(Oc3ccc(F)cc3)cn2)CCO1 [Example 1] |
| -13.4% | -9.4% | > 2.17 h |  | CCNC(=O)[C@@H]1CN(Cc2cnc(Oc3ccc(F)cc3F)cn2)CCO1 [Example 30] |
| -5.8% | -7% | > 2.17 h |  | CCNC(=O)[C@@H]1CN(Cc2cnc(Oc3ccc(C)cc3F)cn2)CCO1 [Example 31] |
| -3.9% | 3.7% | > 2.17 h |  | CNC(=O)[C@@H]1CN(Cc2cnc(Oc3ccc(Cl)cc3F)cn2)CCO1 [Example 5] |
| -4.4% | -4% | > 2.17 h |  | CNC(=O)[C@@H]1CN(Cc2cnc(Oc3ccc(C)cc3F)cn2)CCO1 [Example 2] |
| 5.6% | 0.2% | > 2.17 h |  | CNC(=O)[C@@H]1CN(Cc2cnc(Oc3ccc(F)cc3F)cn2)CCO1 [Example 6] |
| -5% | -10% | > 2.17 h |  | CNC(=O)[C@@H]1CN(Cc2cnc(Oc3ccccc3Cl)cn2)CCO1 [Example 18] |
